The values that follow come from ChEMBL document CHEMBL1130586 (Bioorg Med Chem Lett, 1998).

Each structure is given as a SMILES string.

In experiment [1] the target is Histamine H1 receptor (Cavia porcellus) (UniProt P31389). Kind of experiment: Relative potency against Histamine H1 receptor of guinea pig aorta. It counts as functional, tissue-based.
Experiment [2] deals with Muscarinic acetylcholine receptor M3 (Cavia porcellus, UniProt Q8VH26). Put plainly: Compound was tested for its agonist activity against M3-acetylcholine receptor of guinea pig ileum. Type of experiment: functional, tissue-based. As to conditions: read-out: pA2 (converted).
In experiment [3] the target is Histamine H1 receptor (Cavia porcellus) (UniProt P31389). Put plainly: Partial agonist activity against Histamine H1 receptor in guinea pig aorta. Type of experiment: functional, tissue-based.
Experiment [4] has the same target. Put plainly: Relative potency against Histamine H1 receptor in guinea pig ileum. It counts as functional, tissue-based.
Experiment [5] shares this target. Kind of experiment: Compound was tested for its […] in the presence of mepyramine (1-1000 nM) against Histamine H1 receptor of guinea pig aorta. It counts as functional.
For experiment [6] the target is unchanged. Put plainly: Partial agonist activity against Histamine H1 receptor in guinea pig ileum. Type of experiment: functional, tissue-based.
For the next experiment, the target named is Histamine H3 receptor (Cavia porcellus, UniProt Q9JI35). Put plainly: Compound was tested for the agonist activity against histamine H3 receptor of guinea pig ileum. It counts as functional, tissue-based. The note with it: read-out: pA2 (converted).
Experiment [7] deals with T1, Histamine H1 receptor (Cavia porcellus, UniProt P31389). Kind of experiment: Compound was tested for the contractile effects antagonized by mepyramine (1-1000 nM) against Histamine H1 receptor of guinea pig aorta. Type of experiment: functional. As to conditions: read-out: pA2 (converted).
For experiment [8], the target named is Histamine H1 receptor (Cavia porcellus) (UniProt P31389). Put plainly: Partial agonist activity with mepyramine against Histamine H1 receptor in guinea pig ileum. It counts as functional, tissue-based.
Experiment [9] has the same target. Kind of experiment: Compound was tested for binding affinity against guinea pig ileum. It counts as tissue-based.
Experiment [10] deals with Histamine H2 receptor (Cavia porcellus) (UniProt P47747). Kind of experiment: Compound was tested for agonist activity against histamine H2 receptor of guinea pig atrium. The note with it: Cardiac atrium. Type of experiment: functional, tissue-based.
In experiment [11] the target is T1, Histamine H1 receptor. Kind of experiment: Contractile effects antagonized by mepyramine (0.3-100 nM) against Histamine H1 receptor in guinea pig ileum. Type of experiment: functional, tissue-based. The note with it: read-out: pA2 (converted).
The target in experiment [12] is Histamine H1 receptor (Cavia porcellus) (UniProt P31389). Kind of experiment: Compound was tested for its partial agonist activity in the presence of 1 nM mepyramine against Histamine H1 receptor in guinea pig ileum. Type of experiment: functional, tissue-based.
Experiment [13] shares this target. Put plainly: Compound was tested for its partial agonist activity in the presence of 100 nM mepyramine against Histamine H1 receptor in guinea pig ileum. It counts as functional, tissue-based.
Experiment [14] shares this target. Put plainly: Compound was tested for its partial agonist activity in the presence of 10 nM mepyramine against Histamine H1 receptor in guinea pig ileum. It counts as functional, tissue-based.

Sequence of Muscarinic acetylcholine receptor M3 (Q8VH26 whole entry): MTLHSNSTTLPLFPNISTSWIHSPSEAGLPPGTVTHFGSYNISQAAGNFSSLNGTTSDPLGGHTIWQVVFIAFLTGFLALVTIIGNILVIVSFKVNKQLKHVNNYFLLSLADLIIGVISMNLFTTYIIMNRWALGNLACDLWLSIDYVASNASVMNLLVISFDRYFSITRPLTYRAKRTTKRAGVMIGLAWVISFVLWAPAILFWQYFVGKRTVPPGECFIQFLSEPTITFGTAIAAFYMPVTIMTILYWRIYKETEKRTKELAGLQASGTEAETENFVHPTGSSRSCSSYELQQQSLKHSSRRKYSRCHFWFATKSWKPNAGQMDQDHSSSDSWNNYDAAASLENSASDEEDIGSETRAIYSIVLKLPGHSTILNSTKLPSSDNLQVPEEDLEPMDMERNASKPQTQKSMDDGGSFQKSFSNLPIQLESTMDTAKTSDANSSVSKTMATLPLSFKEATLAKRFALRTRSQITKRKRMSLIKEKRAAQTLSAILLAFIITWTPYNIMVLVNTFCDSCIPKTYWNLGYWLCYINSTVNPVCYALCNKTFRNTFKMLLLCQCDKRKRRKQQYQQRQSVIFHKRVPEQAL
Sequence of Histamine H2 receptor (Cavia porcellus) (P47747 whole entry): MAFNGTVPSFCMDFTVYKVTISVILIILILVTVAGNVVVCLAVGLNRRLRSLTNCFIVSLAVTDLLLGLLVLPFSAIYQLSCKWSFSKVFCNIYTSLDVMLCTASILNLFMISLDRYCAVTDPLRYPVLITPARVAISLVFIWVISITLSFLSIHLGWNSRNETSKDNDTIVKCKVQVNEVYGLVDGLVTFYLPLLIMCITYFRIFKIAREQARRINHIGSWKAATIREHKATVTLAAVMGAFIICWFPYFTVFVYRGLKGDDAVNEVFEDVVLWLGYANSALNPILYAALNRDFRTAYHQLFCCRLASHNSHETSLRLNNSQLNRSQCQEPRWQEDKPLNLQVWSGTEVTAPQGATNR
Sequence of Histamine H1 receptor (Cavia porcellus) (P31389 whole entry): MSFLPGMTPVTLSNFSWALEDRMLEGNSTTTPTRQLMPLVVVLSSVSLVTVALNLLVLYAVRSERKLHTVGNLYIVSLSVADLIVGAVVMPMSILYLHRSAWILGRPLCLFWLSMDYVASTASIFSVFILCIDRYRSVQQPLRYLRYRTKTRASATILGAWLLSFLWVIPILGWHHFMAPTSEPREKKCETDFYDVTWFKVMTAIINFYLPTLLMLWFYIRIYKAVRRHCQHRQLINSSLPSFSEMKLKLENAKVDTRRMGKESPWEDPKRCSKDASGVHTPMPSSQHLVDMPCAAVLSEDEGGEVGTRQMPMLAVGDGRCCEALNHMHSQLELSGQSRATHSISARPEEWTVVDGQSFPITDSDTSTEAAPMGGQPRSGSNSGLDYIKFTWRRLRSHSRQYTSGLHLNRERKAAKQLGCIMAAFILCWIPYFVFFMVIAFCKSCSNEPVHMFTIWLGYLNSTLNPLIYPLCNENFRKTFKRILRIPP
T1 sequence (P31389 whole entry): as above
Sequence of Histamine H3 receptor (Q9JI35 whole entry): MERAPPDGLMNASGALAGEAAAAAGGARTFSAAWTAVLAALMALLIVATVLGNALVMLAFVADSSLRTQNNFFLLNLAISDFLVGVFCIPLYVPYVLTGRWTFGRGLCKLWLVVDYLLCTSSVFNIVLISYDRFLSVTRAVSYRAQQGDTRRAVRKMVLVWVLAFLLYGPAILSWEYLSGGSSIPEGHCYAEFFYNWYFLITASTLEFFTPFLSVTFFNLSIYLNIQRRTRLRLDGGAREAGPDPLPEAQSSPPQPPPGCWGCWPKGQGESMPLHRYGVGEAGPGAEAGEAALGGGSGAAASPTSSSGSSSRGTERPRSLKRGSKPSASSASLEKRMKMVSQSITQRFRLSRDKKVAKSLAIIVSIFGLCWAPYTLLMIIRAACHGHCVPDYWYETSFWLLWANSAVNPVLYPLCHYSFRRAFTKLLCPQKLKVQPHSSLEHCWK

Take `CN(C)CCc1c[nH]c(-c2cccc(C(F)(F)F)c2)n1`: the Relative potency in [1] is 169%; in experiment [4], 95%. The Kb is 26900 nM in [2], 1120 nM on Histamine H3 receptor, 1.41 nM on Histamine H1 receptor [7] and 1.2 nM at Histamine H1 receptor [11]. The Emax was determined as 54% in experiment [3], 64% in experiment [5], 88% in experiment [6] and 67% in experiment [8]. Moreover, in experiment [9], the pKp came out at 6.39. For the same molecule, the pD2 in experiment [10] came to 4.56.

For `CNCCc1c[nH]c(-c2cccc(C(F)(F)F)c2)n1`, the Relative potency amounted to 217% in experiment [1] and 174% in experiment [4]. Moreover, the Kb in experiment [2] is 115000 nM; at Histamine H3 receptor it was 4370 nM; at Histamine H1 receptor [7], 0.832 nM; on Histamine H1 receptor [11], 0.912 nM. The maximal response (Emax) is 59% in [3], 66% in experiment [5], 97% in [6] and 77% in experiment [8]. Also, the pKp in experiment [9] came to 6.47. Moreover, the pD2 in experiment [10] was determined as 4.04.

Take `CNCCc1c[nH]c(-c2cccc(Br)c2)n1`: the figures for the Relative potency in experiment [1] and in experiment [4] were 43% and 109%, respectively. Also, the Kb was 112000 nM in experiment [2], 11700 nM on Histamine H3 receptor, 0.977 nM on Histamine H1 receptor [7] and 0.741 nM on Histamine H1 receptor [11]. Further, the maximum response (Emax) was 76% in [3], 75% in experiment [5], 95% in [6] and 71% in experiment [8]. In addition, the pKp in [9] is 6.17. Further, the pD2 in experiment [10] was 3.86.

With `NCCc1c[nH]c(-c2cccc(C(F)(F)F)c2)n1`, the maximum response (Emax) in [12] turned out to be 97%; in experiment [13], 65%; in [14], 80%; in experiment [3], 80%; in experiment [6] it was 100%. In addition, the Relative potency came out at 94% in experiment [1] and 128% in experiment [4]. The pKp in [9] is 6.23. This molecule registered a pD2 in [10] of 3.48.

For `FC(F)(F)c1cccc(-c2nc(CCNC3CC3)c[nH]2)c1`, in experiment [4], the Relative potency was found to be 28%. The results for the maximal response (Emax) in [6] and in [8] were 36% and 20%, respectively. This molecule returned a pKp in [9] of 6.12. In experiment [10], this molecule yielded a pD2 of 4.36. Further, the Kb on Histamine H1 receptor [11] was 0.741 nM.

For `CN(C)CCc1c[nH]c(-c2cccc(Br)c2)n1`, the values for the Relative potency in experiment [1] and in [4] were 31% and 87%, respectively. Further, the Kb in experiment [2] was 64600 nM; on Histamine H3 receptor, 1450 nM; on Histamine H1 receptor [7], 1.15 nM; on Histamine H1 receptor [11], 0.708 nM. The Emax came out at 58% in experiment [3], 49% in experiment [5], 81% in experiment [6] and 58% in [8]. The molecule further came in with a pKp in experiment [9] of 6.2. This molecule also displayed a pD2 in [10] of 4.74.

Take `CCNCCc1c[nH]c(-c2cccc(C(F)(F)F)c2)n1`: the Kb in experiment [2] is 69200 nM; on Histamine H3 receptor, 2340 nM; on Histamine H1 receptor [11] it was 1.05 nM. For the same molecule, in experiment [4], the Relative potency came out at 30%. The Emax was 63% in experiment [6] and 40% in experiment [8]. Moreover, in experiment [9], the pKp was found to be 5.68. The same molecule came in with a pD2 in experiment [10] of 4.55.

In the case of `NCCc1c[nH]cn1`, the Emax in experiment [3], in [5], in experiment [6] and in [8] was 100% each time.

Regarding `NCCc1cnc(-c2cccc(C(F)(F)F)c2)[nH]1`, the Kb in experiment [2] was 107000 nM; on Histamine H3 receptor, 6170 nM; at Histamine H1 receptor [7], 0.977 nM; on Histamine H1 receptor [11], 0.891 nM.

On to `NCCc1c[nH]c(-c2cccc(Br)c2)n1`, for which the Kb is 155000 nM in experiment [2], 6310 nM at Histamine H3 receptor, 1.26 nM at Histamine H1 receptor [7] and 0.741 nM at Histamine H1 receptor [11]. For the same molecule, the maximal response (Emax) in [3] worked out at 64%; in [6], 100%. Further, the pKp in experiment [9] is 5.97.

Usually Emax stands for the greatest response seen or fitted, relative to the assay's reference.
